Results reported in patent publication US10294202B2, “Pyrrolidinones as herbicides” (FMC Corporation, priority 2013, dated 2019).

Key:
barnyardgrass [1] = assay: Test B flooded paddy test; assay type: in vivo, Echinochloa crus-galli; details: Flood, scale of 0 to 100 where 0 is no effect and 100 is complete control
Method in brief: (§1)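 In-water application to pots flooded 3 cm deep, plants at 2-leaf stage. Held in greenhouse 13–15 days at constant flood depth. Scored 0–100 by eye against controls.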

morningglory = assay: Test A pre-/postemergence herbicide test; assay type: in vivo, Ipomoea spp.; details: for Plant response rating, Morningglory: 0 to 100 scale
Method in brief: (§2)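 Visual 0–100 ratings (100 = complete control) made about 10 days after treatment, greenhouse-held plants compared with untreated controls. Treatments: postemergence sprays on one- to two-leaf plants (2–10 cm tall) and preemergence directed soil sprays after planting in loam–sand, chemicals formulated in non-phytotoxic solvent containing surfactant.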

velvetleaf = assay: Test A pre-/postemergence herbicide test; assay type: in vivo, Abutilon theophrasti; details: for Plant response rating, Velvetleaf: 0 to 100 scale
Method in brief: as §2

pigweed = assay: Test A pre-/postemergence herbicide test; assay type: in vivo, Amaranthus retroflexus; details: for Plant response rating, Pigweed: 0 to 100 scale
Method in brief: as §2

giant foxtail = assay: Test A pre-/postemergence herbicide test; assay type: in vivo, Setaria faberii; details: for Plant response rating, Foxtail, Giant: 0 to 100 scale
Method in brief: as §2

rice = assay: Test B flooded paddy test; assay type: in vivo, Oryza sativa; details: Flood, scale of 0 to 100 where 0 is no effect and 100 is complete control
Method in brief: as §1

ducksalad = assay: Test B flooded paddy test; assay type: in vivo, Heteranthera limosa; details: Flood, scale of 0 to 100 where 0 is no effect and 100 is complete control
Method in brief: as §1

barnyardgrass [2] = assay: Test A pre-/postemergence herbicide test; assay type: in vivo, Echinochloa crus-galli; details: for Plant response rating, Barnyardgrass: 0 to 100 scale
Method in brief: as §2

crabgrass, large = assay: Test A pre-/postemergence herbicide test; assay type: in vivo, Digitaria sanguinalis; details: for Plant response rating, Crabgrass, Large: 0 to 100 scale
Method in brief: as §2

corn = assay: Test A pre-/postemergence herbicide test; assay type: in vivo, Zea mays; details: for Plant response rating, Corn: 0 to 100 scale
Method in brief: as §2

sedge, umbrella = assay: Test B flooded paddy test; assay type: in vivo, Cyperus difformis; details: Flood, scale of 0 to 100 where 0 is no effect and 100 is complete control
Method in brief: as §1

wheat = assay: Test A pre-/postemergence herbicide test; assay type: in vivo, Triticum aestivum; details: for Plant response rating, Wheat: 0 to 100 scale
Method in brief: as §2

[3] = 125 g ai/ha, visual rating, 0 no effect, 100 complete control, approximately 10 days, preemergence
[4] = Postemergence, 125 g ai/ha, 0 is no effect, 100 is complete control
[5] = preemergence, 500 g ai/ha, 0 is no effect and 100 is complete control

| SMILES | Plant response rating, Barnyardgrass (barnyardgrass [1]; 250 g ai/ha) | Plant response rating, Barnyardgrass (barnyardgrass [1]; 1000 g ai/ha) | Plant response rating, Morningglory (morningglory; [3]) | Plant response rating, Morningglory (morningglory; [4]) | Morningglory plant response rating (0 to 100 scale, 0 is no effect, 100 is complete control) (morningglory; Postemergence, 500 g ai/ha) | Plant response rating, Morningglory (morningglory; [5]) | Plant response rating, Velvetleaf (velvetleaf; [3]) | Plant response rating, Velvetleaf (velvetleaf; [4]) | Velvetleaf plant response rating (0 to 100 scale, 0 is no effect, 100 is complete control) (velvetleaf; Postemergence, 500 g ai/ha) | Plant response rating, Velvetleaf (velvetleaf; [5]) | Plant response rating, Pigweed (pigweed; [3]) | Plant response rating, Pigweed (pigweed; [4]) | Pigweed plant response rating (0 to 100 scale, 0 is no effect, 100 is complete control) (pigweed; Postemergence, 500 g ai/ha) | Plant response rating, Pigweed (pigweed; [5]) | Plant response rating, Foxtail, Giant (giant foxtail; [3]) | Plant response rating, Foxtail, Giant (giant foxtail; [4]) | Foxtail, Giant plant response rating (0 to 100 scale, 0 is no effect, 100 is complete control) (giant foxtail; Postemergence, 500 g ai/ha) | Plant response rating, Foxtail, Giant (giant foxtail; [5]) | Plant response rating, Rice (rice; 250 g ai/ha) | Plant response rating, Rice (rice; 1000 g ai/ha) | also measured |
| --- | --- | --- | --- | --- | --- | --- | --- | --- | --- | --- | --- | --- | --- | --- | --- | --- | --- | --- | --- | --- | --- |
| COc1cc(C2CNC(=O)C2C(=O)Nc2cccc(F)c2F)ccc1F (racemic) [Compound 195] | 30 | 70 | 0 | 0 | 0 | 0 | 0 | 0 | 0 | 0 | 0 | 0 | 0 | 0 | 80 | 30 | 70 | 90 | 0 | 15 | Plant response rating, Ducksalad (ducksalad; 250 g ai/ha): 35; Plant response rating, Ducksalad (ducksalad; 1000 g ai/ha): 100; Plant response rating, Barnyardgrass (barnyardgrass [2]; [3]): 30; Plant response rating, Barnyardgrass (barnyardgrass [2]; [4]): 80; Barnyardgrass plant response rating (0 to 100 scale, 0 is no effect, 100 is complete control) (barnyardgrass [2]; Postemergence, 500 g ai/ha): 90; Plant response rating, Barnyardgrass (barnyardgrass [2]; [5]): 90; Plant response rating, Crabgrass, Large (crabgrass, large; [3]): 90; Plant response rating, Crabgrass, Large (crabgrass, large; [4]): 80; Crabgrass, Large plant response rating (0 to 100 scale, 0 is no effect, 100 is complete control) (crabgrass, large; Postemergence, 500 g ai/ha): 80; Plant response rating, Crabgrass, Large (crabgrass, large; [5]): 90; Plant response rating, Corn (corn; [3]): 0; Plant response rating, Corn (corn; [4]): 0; Corn plant response rating (0 to 100 scale, 0 is no effect, 100 is complete control) (corn; Postemergence, 500 g ai/ha): 0; Plant response rating, Corn (corn; [5]): 0; Plant response rating, Sedge, Umbrella (sedge, umbrella; 250 g ai/ha): 0; Plant response rating, Sedge, Umbrella (sedge, umbrella; 1000 g ai/ha): 0; Plant response rating, Wheat (wheat; [3]): 0; Plant response rating, Wheat (wheat; [4]): 0; Wheat plant response rating (0 to 100 scale, 0 is no effect, 100 is complete control) (wheat; Postemergence, 500 g ai/ha): 30; Plant response rating, Wheat (wheat; [5]): 0 |
| COc1cc(C2CNC(=O)C2C(=O)Nc2ccccc2C(F)(F)F)ccc1F (racemic) [Compound 196] | 0 | 20 | 0 | 0 | 0 | 0 | 0 | 0 | 0 | 0 | 0 | 0 | 0 | 0 | 80 | 20 | 70 | 90 | 0 | 0 | Plant response rating, Ducksalad (ducksalad; 250 g ai/ha): 0; Plant response rating, Ducksalad (ducksalad; 1000 g ai/ha): 90; Plant response rating, Barnyardgrass (barnyardgrass [2]; [3]): 0; Plant response rating, Barnyardgrass (barnyardgrass [2]; [4]): 30; Barnyardgrass plant response rating (0 to 100 scale, 0 is no effect, 100 is complete control) (barnyardgrass [2]; Postemergence, 500 g ai/ha): 80; Plant response rating, Barnyardgrass (barnyardgrass [2]; [5]): 70; Plant response rating, Crabgrass, Large (crabgrass, large; [3]): 90; Plant response rating, Crabgrass, Large (crabgrass, large; [4]): 70; Crabgrass, Large plant response rating (0 to 100 scale, 0 is no effect, 100 is complete control) (crabgrass, large; Postemergence, 500 g ai/ha): 80; Plant response rating, Crabgrass, Large (crabgrass, large; [5]): 100; Plant response rating, Corn (corn; [3]): 0; Plant response rating, Corn (corn; [4]): 0; Corn plant response rating (0 to 100 scale, 0 is no effect, 100 is complete control) (corn; Postemergence, 500 g ai/ha): 0; Plant response rating, Corn (corn; [5]): 0; Plant response rating, Sedge, Umbrella (sedge, umbrella; 250 g ai/ha): 0; Plant response rating, Sedge, Umbrella (sedge, umbrella; 1000 g ai/ha): 0; Plant response rating, Wheat (wheat; [3]): 0; Plant response rating, Wheat (wheat; [4]): 0; Wheat plant response rating (0 to 100 scale, 0 is no effect, 100 is complete control) (wheat; Postemergence, 500 g ai/ha): 0; Plant response rating, Wheat (wheat; [5]): 0 |
| COc1ccc(C2CNC(=O)C2C(=O)Nc2cccc(F)c2F)cc1F (racemic) [Compound 198] | 0 | 65 | 0 | 0 | 0 | 0 | 0 | 0 | 0 | 0 | 0 | 0 | 0 | 0 | 50 | 10 | 60 | 80 | 0 | 15 | Plant response rating, Ducksalad (ducksalad; 250 g ai/ha): 70; Plant response rating, Ducksalad (ducksalad; 1000 g ai/ha): 95; Plant response rating, Barnyardgrass (barnyardgrass [2]; [3]): 50; Plant response rating, Barnyardgrass (barnyardgrass [2]; [4]): 50; Barnyardgrass plant response rating (0 to 100 scale, 0 is no effect, 100 is complete control) (barnyardgrass [2]; Postemergence, 500 g ai/ha): 80; Plant response rating, Barnyardgrass (barnyardgrass [2]; [5]): 90; Plant response rating, Crabgrass, Large (crabgrass, large; [3]): 90; Plant response rating, Crabgrass, Large (crabgrass, large; [4]): 50; Crabgrass, Large plant response rating (0 to 100 scale, 0 is no effect, 100 is complete control) (crabgrass, large; Postemergence, 500 g ai/ha): 80; Plant response rating, Crabgrass, Large (crabgrass, large; [5]): 100; Plant response rating, Corn (corn; [3]): 0; Plant response rating, Corn (corn; [4]): 0; Corn plant response rating (0 to 100 scale, 0 is no effect, 100 is complete control) (corn; Postemergence, 500 g ai/ha): 0; Plant response rating, Corn (corn; [5]): 0; Plant response rating, Sedge, Umbrella (sedge, umbrella; 250 g ai/ha): 0; Plant response rating, Sedge, Umbrella (sedge, umbrella; 1000 g ai/ha): 0; Plant response rating, Wheat (wheat; [3]): 0; Plant response rating, Wheat (wheat; [4]): 0; Wheat plant response rating (0 to 100 scale, 0 is no effect, 100 is complete control) (wheat; Postemergence, 500 g ai/ha): 0; Plant response rating, Wheat (wheat; [5]): 0 |
| COc1ccc(C2CNC(=O)C2C(=O)Nc2ccccc2C(F)(F)F)cc1F (racemic) [Compound 199] | 20 | 20 | 0 | 0 | 0 | 0 | 0 | 0 | 40 | 0 | 0 | 0 | 0 | 0 | 50 | 0 | 50 | 90 | 0 | 0 | Plant response rating, Ducksalad (ducksalad; 250 g ai/ha): 90; Plant response rating, Ducksalad (ducksalad; 1000 g ai/ha): 80; Plant response rating, Barnyardgrass (barnyardgrass [2]; [3]): 0; Plant response rating, Barnyardgrass (barnyardgrass [2]; [4]): 50; Barnyardgrass plant response rating (0 to 100 scale, 0 is no effect, 100 is complete control) (barnyardgrass [2]; Postemergence, 500 g ai/ha): 70; Plant response rating, Barnyardgrass (barnyardgrass [2]; [5]): 60; Plant response rating, Crabgrass, Large (crabgrass, large; [3]): 90; Plant response rating, Crabgrass, Large (crabgrass, large; [4]): 60; Crabgrass, Large plant response rating (0 to 100 scale, 0 is no effect, 100 is complete control) (crabgrass, large; Postemergence, 500 g ai/ha): 80; Plant response rating, Crabgrass, Large (crabgrass, large; [5]): 100; Plant response rating, Corn (corn; [3]): 0; Plant response rating, Corn (corn; [4]): 0; Corn plant response rating (0 to 100 scale, 0 is no effect, 100 is complete control) (corn; Postemergence, 500 g ai/ha): 0; Plant response rating, Corn (corn; [5]): 0; Plant response rating, Sedge, Umbrella (sedge, umbrella; 250 g ai/ha): 0; Plant response rating, Sedge, Umbrella (sedge, umbrella; 1000 g ai/ha): 0; Plant response rating, Wheat (wheat; [3]): 0; Plant response rating, Wheat (wheat; [4]): 0; Wheat plant response rating (0 to 100 scale, 0 is no effect, 100 is complete control) (wheat; Postemergence, 500 g ai/ha): 0; Plant response rating, Wheat (wheat; [5]): 0 |
